Test [1] is described as follows: Binding of fluorescein-labeled peptides to hydroxyapatite nanocrystals (Langmuir isotherm). The conditions noted are these: Langmuir fit; for KA, affinity constant of the peptide for the hydroxyapatite surface: fluorescein-labeled peptide 0-100 μM, 0.3 mg hydroxyapatite, ten minutes. How it is done: FIG. 1: Binding affinities of DSS and DSS variant peptides for hydroxyapatite and tooth surfaces. A-C. Fluorescein-labeled peptides at concentrations ranging from 0-100 μM were incubated with 0.3 mg of hydroxyapatite nanocrystals (specific surface area=100 m^2/g) for ten minutes, followed by removal of the hydroxyapatite by centrifugation. The amount of peptide in the mixture before and after hydroxyapatite removal was determined by Abs480. Isotherms were plotted and fit to the Langmuir equation to extract values for KA, a constant reflecting the affinity of the peptide for the hydroxyapatite surface. D. Sagitally sectioned human teeth were incubated with 12.5 μM 5(6) carboxyfluorescein-labeled 6DSS peptide for ten minutes, followed by rinsing. Peptide binding to tooth surfaces was visualized by Confocal Laser Scanning Microscopy (CLSM) using blue laser illumination (λA=488 nm) and a FITC emission filter. Left side, light colored region: dentin. Right side, dark colored region: enamel.
Four DSS peptides containing two (2DSS, SEQ ID NO:12), four (4DSS, SEQ ID NO:13), six (6DSS, SEQ ID NO:14), or eight(8DSS, SEQ ID NO:15) Asp-Ser-Ser (DSS) repeats were generated. Peptides were labeled with fluorescein, and various concentrations of the labeled peptides (0-100 μM) were mixed with a fixed amount (0.3 mg) of hydroxyapatite nanocrystals having a specific surface area of 100 m^2/g (Berkeley Advanced Biomaterials, Inc.). Samples were incubated for ten minutes, followed by removal of the hydroxyapatite by centrifugation. The amount of peptide in the mixture was measured both before and after hydroxyapatite removal by spectroscopic absorbance at 480 nm (the peak absorbance of the fluorescein label). The amount of peptide bound was calculated by comparing the ratio of the final (Af) and initial (Ai) absorbances to the initial concentration (P0) [Pbound=[…]]. Plots were generated illustrating the amount of peptide bound per m^2 of hydroxyapatite surface area versus concentration of unbound peptide at equilibrium. The resulting isotherms were fit to the Langmuir isotherm (x/m=(KANMaxCeq)/(1+KACeq)) (Calis 1995), which describes the binding activity of a molecule in terms of a combination of binding affinity (KA) and avidity (NMax). KA represents the affinity constant of the peptide for the hydroxyapatite surface. In this equation, x/m represents the molar amount of peptide bound per unit of hydroxyapatite surface area, NMax represents the maximum surface concentration (mol/m^2), and Ceq represents the molar concentration of unbound peptide at equilibrium. The Langmuir isotherm describes the binding of molecules to surfaces with the conditions that 1) all binding sites have the same affinity for the peptide, and 2) the peptide will form a monolayer on the surface but cannot accumulate to higher levels. The excellent fit of the Langmuir isotherm to the experimental data validates these conditions, and these affinity constants were used for comparisons between peptides.

The nature of test [2]: Preferential binding to carious lesions in teeth (CLSM). More on the design: species or system human. The following applies: labeled peptide, settings optimized per sample. The protocol:
FIG. 9: Fluorescence micrographs showing specific binding of DSS peptides and variants to carious lesions in teeth. Adult human teeth were exposed to 12.5 uM 5(6)-carboxyfluorescein-labeled peptide without demineralization, washed extensively, and imaged by CLSM. Microscope and camera settings were optimized separately for each sample. […] White traces on the right side of each panel identify the position of the tooth surface, while arrows indicate the position of the stained lesion.
Sections of human teeth containing obvious carious lesions, which consist of demineralized enamel, were polished and exposed to 5(6)-carboxyfluorescein-labeled DSS peptides and variants using the protocol described in Example 2. The sections were washed extensively and imaged by CLSM using blue laser illumination (λ=488 nm) and a FITC emission filter, with microscope and camera settings adjusted for each sample to optimize the signal detected from each peptide. The images were examined to identify the relative levels of peptide binding in healthy versus carious tissue. […] Given their ability to remineralize at sites of enamel degradation (Example 6), they can also be used to initiate remineralization at sites of enamel degradation such as caries or injury sites without causing inappropriate nucleation on healthy tissue surfaces.

Test [3] is described as follows: Tissue specific binding of DSS peptides and variants in human teeth (CLSM). The following applies: 12.5 μM labeled peptide; for Tissue binding pattern in healthy tooth section: nondemineralized teeth. How it is done:
FIG. 8: Fluorescence micrographs showing tissue specificity in the binding of DSS peptides and variants. Adult human teeth were exposed to 12.5 μM 5(6)-carboxyfluorescein-labeled peptide without demineralization, washed extensively, and imaged by CLSM. For each section, multiple scans were collected and assembled in an automated mode to generate panels of images representing an area of 13×13 mm, sufficient in most cases to encompass the whole section. The peptides used for each section are labeled beneath each panel, and within each panel the tooth is oriented with the root toward the top of the image and the crown toward the bottom. Tissue layers are labeled as follows: RTD=Root Tip Dentin; CPD=Circumpulpal Dentin; MD=Mantle Dentin; P=Pulp Cavity Wall; DEJ=Dentin-Enamel Junction; E=Enamel; BE=Basal Enamel; CE=Cortical Enamel; CL=Carious Lesion; PB=Periodontal Bone.
In order to investigate the tissue specificity of DSS peptide binding to tooth tissue, sections of human teeth were exposed to DSS peptides and variants, then imaged by CLSM as described in Example 2. The peptides utilized for these experiments were 8DSS, 8ASS, 8DAA, 8NAA, 4DSS, 4ESS, 4NSS, 4DTT, 4ETT, 4NTT, and 6DSS. Sagittal sections of human teeth extracted during normal clinical practice were polished and then incubated for ten minutes in a solution of the appropriate 5(6) carboxyfluorescein-labeled peptide (12.5 μM) containing 10 mM NaCl and 50 mM HEPES, pH 7.0. Control samples were prepared without peptide. Samples were washed extensively after treatment and imaged by CLSM using blue laser illumination (λ=488 nm) and a FITC emission filter, with identical camera and microscope settings for each sample. For each section, multiple scans were collected and assembled in an automated mode to generate panels of images representing an area of 13×13 mm, sufficient in most cases to encompass the whole section. […] Significant binding was also seen to the edges of the pulp cavity.

No end group written: not given here.

“2DSS: peptide containing two Asp-Ser-Ser (DSS) repeats, SEQ ID NO:12 (DSSDSS; calcium binding peptide containing two DSS repeats, 2DSS)”: in test [1], the “KA, affinity constant of the peptide for the hydroxyapatite surface” value (“KA, affinity constant of the peptide” for short) is 57,000 M^−1.

Regarding “4DSPS: partially phosphorylated four repeat DSS peptide, SEQ ID NO:25 (DSSDSSDSSDSS; also: partially phosphorylated, sites not given here)”, in test [1], the “NMax, maximum surface concentration (available binding sites on HA surface)” value is 1.2×10^−7 mol/m^2 and the “KA, affinity constant of the peptide” value is listed as 83,000 M^−1.

As for “4DSS: peptide containing four Asp-Ser-Ser (DSS) repeats, SEQ ID NO:13 (DSSDSSDSSDSS; calcium binding peptide containing four DSS repeats, 4DSS, (DSS)-4)”, in test [2], the “Specificity of binding to carious lesions versus surrounding healthy enamel” value is listed as “highly specific binding to carious lesions” and the “Strength of staining of carious lesions” value was “exceptionally strong staining of carious lesions”. In test [1], the “NMax, maximum surface concentration (available binding sites on HA surface)” value is 5.8×10^−8 mol/m^2 and the “KA, affinity constant of the peptide” value was 94,000 M^−1. The “Tissue binding pattern in healthy tooth section” value (shortened to “Tissue binding pattern”) in test [3] is recorded as “bound primarily to the mantle dentin”.

For the substance “4DTT: four repeat peptide containing more sterically hindered hydroxyl groups at second and third positions, SEQ. ID NO. 17 (DTTDTTDTTDTT; variant DSS four repeat peptide containing more sterically hindered hydroxyl groups at second and third positions, 4DTT)”, in test [1], the “KA, affinity constant of the peptide” value was 161,000 M^−1. For the same substance, the “Tissue binding pattern” value in test [3] was “binding patterns similar to those of 4DSS and 4ESS, though at sharply reduced levels”.

For “4ESS: four repeat peptide containing a longer sidechain at the first position, SEQ. ID NO. 16 (ESSESSESSESS; variant DSS four repeat peptide containing longer sidechain at first position, 4ESS)”, in test [2], the “Specificity of binding to carious lesions versus surrounding healthy enamel” value is “highly specific binding to carious lesions” and the “Strength of staining of carious lesions” value was “exceptionally strong staining of carious lesions”. Further, in test [1], the “KA, affinity constant of the peptide” value was 81,000 M^−1.

As for “4ETT: four repeat peptide containing more sterically hindered hydroxyl groups at second and third positions, SEQ. ID NO. 19 (ETTETTETTETT; variant DSS four repeat peptide containing more sterically hindered hydroxyl groups at second and third positions, 4ETT)”, the “Specificity of binding to carious lesions versus surrounding healthy enamel” value in test [2] is reported as “highly specific binding to carious lesions”. In addition, in test [1], the “KA, affinity constant of the peptide” value is on record as 61,000 M^−1. Besides, the “Tissue binding pattern” value in test [3] was “binding patterns similar to those of 4DSS and 4ESS, though at sharply reduced levels”.

Turning to “4NAA: label printed only in b88, not defined; probably a misprint (NAANAANAANAA; variant DSS four repeat peptide lacking hydroxyl group at seond and third positions, 4NAA)”, the “Strength of staining of carious lesions” value in test [2] is “exceptionally strong staining of carious lesions”.

As to “4NSS: four repeat peptide lacking a charged group at the first position, SEQ. ID NO. 20 (NSSNSSNSSNSS; variant DSS four repeat peptide lacking negatively charged group at first position, 4NSS)”, the “Specificity of binding to carious lesions versus surrounding healthy enamel” value in test [2] is given as “highly specific binding to carious lesions”. Further, the “KA, affinity constant of the peptide” value in test [1] is 41,000 M^−1.

As for “4NTT: four repeat peptide containing more sterically hindered hydroxyl groups at second and third positions, SEQ. ID NO. 18 (NTTNTTNTTNTT; variant DSS four repeat peptide containing more sterically hindered hydroxyl groups at second and third positions, 4NTT)”, the “KA, affinity constant of the peptide” value in test [1] is listed as 18,000 M^−1. In addition, in test [3], the “Binding to fragment of periodontal bone attached to the sample” value is given as “strong binding” and the “Tissue binding pattern” value is reported as “very low levels of binding to the healthy tooth tissue”.

On to “8ASS: eight repeat peptide lacking a charged group at the first position, SEQ. ID NO. 21 (ASSASSASSASSASSASSASSASS; variant DSS eight repeat peptide lacking negatively charged group at first position, 8ASS)”, for which, in test [2], the “Specificity of binding to carious lesions versus surrounding healthy enamel” value is “highly specific binding to carious lesions” and the “Strength of staining of carious lesions” value is given as “exceptionally strong staining of carious lesions”. Also, the “KA, affinity constant of the peptide” value in test [1] is 170,000 M^−1.

Regarding “8DAA: eight repeat peptide lacking hydroxyl groups at the second and third positions, SEQ. ID NO. 22 (DAADAADAADAADAADAADAADAA; variant DSS eight repeat peptide lacking hydroxyl group at seond and third positions, 8DAA)”, in test [2], the “Specificity of binding to carious lesions versus surrounding healthy enamel” value is reported as “highly specific binding to carious lesions” and the “Strength of staining of carious lesions” value is on record as “exceptionally strong staining of carious lesions”. For the same substance, in test [1], the “KA, affinity constant of the peptide” value is reported as 300,000 M^−1. For the same substance, the “Tissue binding pattern” value in test [3] is “primary binding to the root tip dentin and cortical enamel, as well as to the dentin-enamel junction and the pulp cavity wall”.
